Source: ChEMBL document CHEMBL5528048, “Discovery of Novel Potent and Fast BTK PROTACs for the Treatment of Osteoclasts-Related Inflammatory Diseases” (J Med Chem, 2024)
Active and inactive are the calls of the source. No cut-off for these calls is given here.

What was measured:
[1] = AUC (0 to infinity) in Sprague-Dawley rat at 2 mg/kg, iv measured upto 48 hrs; type: ADME, organism-based; conditions: in vivo
[2] = biological target: T1, Protein cereblon/Tyrosine-protein kinase BTK (Mus musculus) (UniProt P35991+Q8C7D2); assay: PROTAC activity at BTK/CRBN in mCSF/RANKL-stimulated C57BL/6J mouse BMDM assessed as reduction in phosphorylated PLCgamma2 protein level at 25 to 100 nM followed by stimulated with mCSF/RANKL measured after 2 hrs by Western blotting analysis; type: cell-based; conditions: dose 25-100 nM
[3] = biological target: T2, Protein cereblon/Tyrosine-protein kinase BTK (Homo sapiens, UniProt Q06187+Q96SW2); assay: PROTAC activity at BTK/CRBN in human MINO cells assessed as BTK protein degradation at 20 nM measured after 24 hrs by Western blotting analysis relative to control; type: cell-based
Target sequence in this assay (Q06187 2-659 limits assumed): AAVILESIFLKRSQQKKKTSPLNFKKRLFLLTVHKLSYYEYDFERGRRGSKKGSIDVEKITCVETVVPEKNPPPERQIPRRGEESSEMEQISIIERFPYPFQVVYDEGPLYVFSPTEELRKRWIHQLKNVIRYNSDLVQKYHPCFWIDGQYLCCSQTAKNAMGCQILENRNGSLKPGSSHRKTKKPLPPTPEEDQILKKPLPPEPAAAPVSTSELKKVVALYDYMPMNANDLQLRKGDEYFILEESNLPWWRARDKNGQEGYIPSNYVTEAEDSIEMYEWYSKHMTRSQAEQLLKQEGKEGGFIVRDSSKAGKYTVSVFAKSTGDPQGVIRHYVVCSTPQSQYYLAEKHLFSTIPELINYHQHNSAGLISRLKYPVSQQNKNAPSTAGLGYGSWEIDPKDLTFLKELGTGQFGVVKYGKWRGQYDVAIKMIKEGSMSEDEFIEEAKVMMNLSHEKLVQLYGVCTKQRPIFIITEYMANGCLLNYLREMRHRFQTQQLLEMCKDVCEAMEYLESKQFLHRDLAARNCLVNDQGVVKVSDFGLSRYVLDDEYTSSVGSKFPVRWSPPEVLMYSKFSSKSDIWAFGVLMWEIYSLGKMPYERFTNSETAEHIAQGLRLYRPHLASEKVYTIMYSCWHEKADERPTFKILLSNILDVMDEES
Target sequence in this assay (Q96SW2 whole entry partner): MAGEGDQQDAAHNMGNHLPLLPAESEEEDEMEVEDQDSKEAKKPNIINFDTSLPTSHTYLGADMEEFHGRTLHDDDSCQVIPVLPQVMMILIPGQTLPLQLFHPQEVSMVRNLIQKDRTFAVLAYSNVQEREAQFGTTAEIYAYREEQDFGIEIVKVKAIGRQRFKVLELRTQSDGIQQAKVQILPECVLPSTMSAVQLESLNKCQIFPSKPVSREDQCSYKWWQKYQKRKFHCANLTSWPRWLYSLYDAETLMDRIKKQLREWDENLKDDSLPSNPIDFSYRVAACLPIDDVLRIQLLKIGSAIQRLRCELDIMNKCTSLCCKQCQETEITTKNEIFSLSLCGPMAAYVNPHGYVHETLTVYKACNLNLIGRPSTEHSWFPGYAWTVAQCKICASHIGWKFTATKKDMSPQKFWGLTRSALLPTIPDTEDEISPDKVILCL

[4] = biological target: T3, Tyrosine-protein kinase BTK (Homo sapiens, UniProt Q06187); assay: Binding affinity to BTK (unknown origin) assessed as inhibition constant measured after 60 mins incubation by microtiter-plate reader
[5] = biological target: T1, Protein cereblon/Tyrosine-protein kinase BTK (Mus musculus); assay: PROTAC activity at BTK/CRBN in mCSF/RANKL-stimulated C57BL/6J mouse BMDM assessed as reduction in phosphorylated ERK protein level at 25 to 100 nM followed by stimulated with mCSF/RANKL measured after 2 hrs by Western blotting analysis; type: cell-based; conditions: dose 25-100 nM
[6] = biological target: T2, Protein cereblon/Tyrosine-protein kinase BTK; assay: PROTAC activity at BTK/CRBN in human MINO cells assessed as BTK protein degradation at 100 nM measured after 24 hrs by Western blotting analysis relative to control; type: cell-based
Target sequence in this assay (Q06187 2-659 limits assumed): as the sequence (Q06187 2-659 limits assumed) above
Target sequence in this assay (Q96SW2 whole entry partner): as the sequence (Q96SW2 whole entry partner) above

Mus musculus [7] = assay: Antiosteoclastogenic effects in LPS-soaked ligature-induced C57BL/6J mouse periodontal disease model assessed as reduction in periodontal alveolar bone loss by measuring distance between the cemento-enamel junction (CEJ) at 10 to 30 mg/kg, ip treated on day 0, 1,4, 7 and measured on day 10 by Micro-CT 3D scan; type: functional, organism-based; conditions: dose 10-30 mg/kg, time 7.0 day
Protein cereblon = Protein cereblon (Homo sapiens, UniProt Q96SW2); assay: Inhibition of CRBN (unknown origin) measured after 60 mins incubation by BMG reader
[8] = biological target: T2, Protein cereblon/Tyrosine-protein kinase BTK; assay: Binding affinity to BTK/CRBN (unknown origin) assessed as ternary complex formation by measuring peak HTRF ratio at wavelength 665/620 nm measured after 60 mins incubation by HTRF assay
Target sequence in this assay (Q06187 2-659 limits assumed): as the sequence (Q06187 2-659 limits assumed) above
Target sequence in this assay (Q96SW2 whole entry partner): as the sequence (Q96SW2 whole entry partner) above

[9] = Apparent volume of distribution in Sprague-Dawley rat at 4 mg/kg, ip measured upto 48 hrs; type: ADME, organism-based; conditions: in vivo
[10] = biological target: T1, Protein cereblon/Tyrosine-protein kinase BTK (Mus musculus); assay: PROTAC activity at BTK/CRBN in C57BL/6J mouse BMDM assessed as reduction in mCSF/RANKL-stimulated intracellular calcium influx by measuring fluorescence intensity measured after 2 hrs by Fluo-4/AM-fluorescent assay; type: cell-based; conditions: dose 25-100 nM
[11] = AUC (0 to t) in Sprague-Dawley rat at 4 mg/kg, ip measured upto 48 hrs; type: ADME, organism-based; conditions: in vivo
Mus musculus [12] = assay: Antiosteoclastogenic effects in LPS-soaked ligature-induced C57BL/6J mouse periodontal disease model assessed as reduction in periodontal alveolar bone loss by measuring distance between the alveolar bone crest (ABC) at 10 to 30 mg/kg, ip treated on day 0, 1,4, 7 and measured on day 10 by Micro-CT 3D scan; type: functional, organism-based; conditions: dose 10-30 mg/kg, time 7.0 day
[13] = biological target: T3, Tyrosine-protein kinase BTK; assay: Inhibition of BTK (unknown origin) measured after 60 mins incubation by microtiter-plate reader
[14] = Clearance in Sprague-Dawley rat at 4 mg/kg, ip measured upto 48 hrs; conditions: in vivo
[15] = biological target: T2, Protein cereblon/Tyrosine-protein kinase BTK; assay: PROTAC activity at BTK/CRBN in human MINO cells assessed as BTK protein degradation pretreated with 2 uM pomalidomide followed by 1 hr treated at 20 nM measured after 48 hrs by Western blotting analysis; type: cell-based; conditions: dose […]
Target sequence in this assay (Q06187 2-659 limits assumed): as the sequence (Q06187 2-659 limits assumed) above
Target sequence in this assay (Q96SW2 whole entry partner): as the sequence (Q96SW2 whole entry partner) above

BMMC [16] = assay: Inhibition of RANKKL-induced upregulation of osteoclast related genes in C57BL/6J mouse BMM cells assessed as reduction in mCSF/RANKL-stimulated Dcstamp-gene expression at 25 to 100 nM followed by stimulated with mCSF/RANKL measured after 2 hrs by qPCR analysis; type: functional, cell-based; conditions: dose 25-100 nM
[17] = biological target: T2, Protein cereblon/Tyrosine-protein kinase BTK; assay: Binding affinity to BTK/CRBN (unknown origin) assessed as ternary complex formation by measuring peak concentration measured after 60 mins incubation by HTRF assay
Target sequence in this assay (Q06187 2-659 limits assumed): as the sequence (Q06187 2-659 limits assumed) above
Target sequence in this assay (Q96SW2 whole entry partner): as the sequence (Q96SW2 whole entry partner) above

[18] = Bioavailability in Sprague-Dawley rat at 4 mg/kg, ip measured upto 48 hrs; type: ADME, organism-based; conditions: in vivo
[19] = Apparent volume of distribution in Sprague-Dawley rat at 2 mg/kg, iv measured upto 48 hrs; type: ADME, organism-based; conditions: in vivo, read-out: Vz
[20] = biological target: T2, Protein cereblon/Tyrosine-protein kinase BTK; assay: PROTAC activity at BTK/CRBN in human MINO cells assessed as BTK protein degradation pretreated with 2 uM MG132 followed by 1 hr treated at 20 nM measured after 48 hrs by Western blotting analysis; type: cell-based; conditions: dose […]
Target sequence in this assay (Q06187 2-659 limits assumed): as the sequence (Q06187 2-659 limits assumed) above
Target sequence in this assay (Q96SW2 whole entry partner): as the sequence (Q96SW2 whole entry partner) above

[21] = biological target: T1, Protein cereblon/Tyrosine-protein kinase BTK (Mus musculus); assay: PROTAC activity at BTK/CRBN in C57BL/6J mouse BMM cells assessed as reduction in mCSF/RANKL-stimulated c-Fos protein expression at 25 to 100 nM followed by stimulated with mCSF/RANKL measured after 2 hrs by Western blot analysis; type: cell-based; conditions: BMDM, dose 25-100 nM
BMMC [22] = assay: Cytotoxicity against C57BL/6J mouse BMM cells assessed as cell viability at 10 uM measured after 1 to 2 hrs by CCK8 assay; type: toxicity, cell-based; conditions: time 1-2 hrs
[23] = biological target: T2, Protein cereblon/Tyrosine-protein kinase BTK; assay: Binding affinity to BTK/CRBN (unknown origin) assessed as ternary complex formation measured after 60 mins incubation by HTRF assay
Target sequence in this assay (Q06187 whole entry): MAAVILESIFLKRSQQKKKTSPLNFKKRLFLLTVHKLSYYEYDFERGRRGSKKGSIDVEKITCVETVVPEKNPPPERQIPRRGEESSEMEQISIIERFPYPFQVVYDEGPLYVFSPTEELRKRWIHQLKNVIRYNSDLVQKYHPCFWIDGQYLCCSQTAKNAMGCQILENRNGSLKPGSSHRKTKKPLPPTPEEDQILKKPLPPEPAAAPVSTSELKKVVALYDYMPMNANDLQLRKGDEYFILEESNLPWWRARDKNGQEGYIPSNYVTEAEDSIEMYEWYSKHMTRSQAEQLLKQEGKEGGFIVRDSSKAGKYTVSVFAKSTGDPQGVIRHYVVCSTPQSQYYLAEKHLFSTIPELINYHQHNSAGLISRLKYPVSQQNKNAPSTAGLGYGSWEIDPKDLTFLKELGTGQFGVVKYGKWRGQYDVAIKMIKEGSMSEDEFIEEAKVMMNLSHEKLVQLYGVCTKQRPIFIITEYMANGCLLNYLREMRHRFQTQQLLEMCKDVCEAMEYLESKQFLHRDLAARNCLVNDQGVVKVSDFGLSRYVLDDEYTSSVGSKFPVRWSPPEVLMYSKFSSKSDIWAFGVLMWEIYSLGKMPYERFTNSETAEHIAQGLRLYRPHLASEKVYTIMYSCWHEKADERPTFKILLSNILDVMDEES
Target sequence in this assay (Q96SW2 whole entry): as the sequence (Q96SW2 whole entry partner) above

[24] = AUC (0 to infinity) in Sprague-Dawley rat at 4 mg/kg, ip measured upto 48 hrs; type: ADME, organism-based; conditions: in vivo
[25] = AUC (0 to t) in Sprague-Dawley rat at 2 mg/kg, iv measured upto 48 hrs; type: ADME, organism-based; conditions: in vivo
[26] = biological target: T2, Protein cereblon/Tyrosine-protein kinase BTK; assay: PROTAC activity at BTK/CRBN in human MINO cells assessed as BTK protein degradation half life at 20 nM by Western blotting analysis; type: cell-based
[27] = biological target: T1, Protein cereblon/Tyrosine-protein kinase BTK (Mus musculus); assay: PROTAC activity at BTK/CRBN in mCSF/RANKL-stimulated C57BL/6J mouse BMDM assessed as reduction in phosphorylated NFkappa-p65 protein level at 25 to 100 nM followed by stimulated with mCSF/RANKL measured after 2 hrs by Western blotting analysis; type: cell-based; conditions: dose 25-100 nM
[28] = Half life in Sprague-Dawley rat at 2 mg/kg, iv measured upto 48 hrs; type: ADME, organism-based; conditions: in vivo
BMMC [29] = assay: Inhibition of RANKKL-induced upregulation of osteoclast related genes in C57BL/6J mouse BMM cells assessed as reduction in mCSF/RANKL-stimulated NFATc1 gene expression at 25 to 100 nM followed by stimulated with mCSF/RANKL measured after 2 hrs by qPCR analysis; type: functional, cell-based; conditions: dose 25-100 nM
BMMC [30] = assay: Inhibition of RANKKL-induced upregulation of osteoclast related genes in C57BL/6J mouse BMM cells assessed as reduction in mCSF/RANKL-stimulated TRAP gene expression at 25 to 100 nM followed by stimulated with mCSF/RANKL measured after 2 hrs by qPCR analysis; type: functional, cell-based; conditions: dose 25-100 nM
[31] = biological target: T1, Protein cereblon/Tyrosine-protein kinase BTK (Mus musculus); assay: PROTAC activity at BTK/CRBN in mCSF/RANKL-stimulated C57BL/6J mouse BMDM assessed as reduction in phosphorylated JNK protein level at 25 to 100 nM followed by stimulated with mCSF/RANKL measured after 2 hrs by Western blotting analysis; type: cell-based; conditions: dose 25-100 nM

T1 sequence (P35991 whole entry, looked up): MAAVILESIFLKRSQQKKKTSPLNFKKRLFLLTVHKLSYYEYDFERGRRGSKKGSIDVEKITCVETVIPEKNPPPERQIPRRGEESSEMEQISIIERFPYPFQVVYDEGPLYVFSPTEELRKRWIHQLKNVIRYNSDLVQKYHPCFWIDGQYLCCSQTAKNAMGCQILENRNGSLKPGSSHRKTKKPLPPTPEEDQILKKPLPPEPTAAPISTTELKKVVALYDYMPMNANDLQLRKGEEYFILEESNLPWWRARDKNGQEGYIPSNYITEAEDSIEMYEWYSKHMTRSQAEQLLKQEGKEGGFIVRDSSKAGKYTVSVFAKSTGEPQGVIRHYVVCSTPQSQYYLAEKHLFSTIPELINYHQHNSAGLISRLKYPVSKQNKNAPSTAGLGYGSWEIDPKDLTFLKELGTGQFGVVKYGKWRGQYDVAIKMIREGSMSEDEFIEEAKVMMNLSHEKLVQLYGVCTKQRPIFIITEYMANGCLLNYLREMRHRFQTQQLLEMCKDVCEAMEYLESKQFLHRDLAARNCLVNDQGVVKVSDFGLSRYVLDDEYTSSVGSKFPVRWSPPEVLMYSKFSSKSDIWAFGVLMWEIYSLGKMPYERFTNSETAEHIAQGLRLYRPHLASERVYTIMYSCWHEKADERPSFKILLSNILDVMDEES
T1 sequence (Q8C7D2 whole entry, looked up): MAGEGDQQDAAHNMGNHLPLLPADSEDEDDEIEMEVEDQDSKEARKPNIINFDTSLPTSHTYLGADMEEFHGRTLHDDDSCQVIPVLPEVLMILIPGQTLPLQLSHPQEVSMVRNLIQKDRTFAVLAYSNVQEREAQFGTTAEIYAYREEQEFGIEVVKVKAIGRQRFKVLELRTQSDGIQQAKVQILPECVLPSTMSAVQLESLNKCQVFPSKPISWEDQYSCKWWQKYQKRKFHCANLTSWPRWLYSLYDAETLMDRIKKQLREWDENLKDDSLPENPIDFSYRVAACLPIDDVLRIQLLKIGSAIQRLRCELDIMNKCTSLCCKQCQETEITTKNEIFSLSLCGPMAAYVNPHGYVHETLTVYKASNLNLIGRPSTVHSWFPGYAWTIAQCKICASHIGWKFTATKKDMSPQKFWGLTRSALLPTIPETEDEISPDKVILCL
T3 sequence (Q06187 whole entry): as the sequence (Q06187 whole entry) above
Sequence of Protein cereblon (Q96SW2 whole entry): as the sequence (Q96SW2 whole entry partner) above

With `Cc1cc(-c2nc(Nc3cnn(C4CCN(CC5CCN(c6ccc7c(c6)C(=O)N(C6CCC(=O)NC6=O)C7=O)CC5)CC4)c3)ncc2F)ccc1CNC(=O)c1cn(C(C)(C)C)nn1` (configuration not stated) the AUC(0-inf) [1] was 2350 ng·h/mL, the Activity [2] was “Active” and the Activity [3] was 99%. The Ki [4] was 152 nM, the Activity [5] was “Active” and the Activity [6] was 99%. The Activity (Mus musculus [7]) was “Active”, the IC50 (Protein cereblon) was 248 nM and the Ratio [8] was 8.59. For the same compound, the Vz [9] was 30.04 L/kg, the Activity [10] was “Dose-Dependent Effect” and the AUC(0-t) at 48 h [11] was 2800 ng·h/mL. For the same compound, the Activity (Mus musculus [12]) was “Active”, the IC50 [13] was 299 nM and the CL/F at 48 h [14] was 25.8 mL/min/kg. The Activity [15] was “inactive”, the inhibition (BMMC [16]) was “Active” and the Activity [17] was 12.3 nM. The bioavailability [18] was 65.7%, the Vd [19] was 9.29 L/kg and the Activity [20] was “inactive”. The Activity [21] was “Active”, the Activity (BMMC [22]) was “Non-Toxic” and the EC50 [23] was 4.28 nM. For the same compound, the AUC(0-inf) [24] was 3090 ng·h/mL, the AUC(0-t) at 48 h [25] was 2340 ng·h/mL and the T1/2 [26] was 0.59 h. For the same compound, the Activity [27] was “Active”, the half-life [28] was 7.03 h and the Activity (BMMC [29]) was “Active”. The inhibition (BMMC [30]) was “Active” and the Activity [31] was “Active”.
